Laboratory results taken from patent US20240116985A1, “STAPLED PEPTIDES AND METHODS THEREOF” (priority 2020, published 2024).
In brackets after ≈: the same amount, converted by molar mass. Read-outs that look alike come from different tables or passages of the source.

How the values were obtained:
[1] = molecular target: T1, full-length beta-Catenin (Uniprot ID P35222) (Homo sapiens, UniProt P35222); assay: Fluorescence polarization IC50 (beta-catenin / 5FAM-TCF4 10-53 competition); assay type: binding
T1 construct: 10 nM full-length beta-Catenin (Uniprot ID P35222)
T1 sequence (P35222 1-781): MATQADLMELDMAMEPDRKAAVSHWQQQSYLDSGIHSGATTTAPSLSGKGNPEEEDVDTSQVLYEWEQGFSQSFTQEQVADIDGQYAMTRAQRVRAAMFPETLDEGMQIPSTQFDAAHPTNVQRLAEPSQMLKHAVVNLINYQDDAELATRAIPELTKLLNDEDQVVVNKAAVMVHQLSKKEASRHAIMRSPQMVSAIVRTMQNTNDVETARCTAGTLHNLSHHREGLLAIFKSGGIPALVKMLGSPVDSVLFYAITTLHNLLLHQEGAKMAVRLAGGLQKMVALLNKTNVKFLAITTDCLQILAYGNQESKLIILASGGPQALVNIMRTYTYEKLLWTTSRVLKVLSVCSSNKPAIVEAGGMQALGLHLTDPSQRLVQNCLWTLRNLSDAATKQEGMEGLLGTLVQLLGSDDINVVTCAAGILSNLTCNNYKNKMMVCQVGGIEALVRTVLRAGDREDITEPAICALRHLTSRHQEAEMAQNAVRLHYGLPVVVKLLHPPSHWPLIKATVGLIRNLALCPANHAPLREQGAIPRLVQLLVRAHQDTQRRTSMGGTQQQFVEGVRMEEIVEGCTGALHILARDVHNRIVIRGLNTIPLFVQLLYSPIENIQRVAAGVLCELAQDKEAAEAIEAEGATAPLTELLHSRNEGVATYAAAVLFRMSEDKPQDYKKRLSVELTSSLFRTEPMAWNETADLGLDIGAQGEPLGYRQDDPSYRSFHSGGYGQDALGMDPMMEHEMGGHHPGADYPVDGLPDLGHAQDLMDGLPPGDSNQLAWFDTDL

CHI Log D procedure = assay type: physicochemical; settings: pH 7.4, CHI Log D
Solubility in PBS = assay type: physicochemical
In short: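 The PBS solution was ultracentrifuged and the supernatant analyzed by HPLC. Its peak area was divided by that of a 50 μM peptide DMSO reference injection and multiplied by 50 uM to give solubility.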

[2] = molecular target: T2, beta-catenin/TCF4 engagement (Homo sapiens, UniProt P35222); assay: Nano-BRET target engagement assay (B-cat-Halo & TCF4-Luc in HEK293 cells); assay type: cell-based
T2 construct: expressed in transfected cells; host or cells: HEK293
T2 sequence (P35222 1-781): T1 sequence (P35222 1-781)

Compound	IC50 ([1]; fluorescence polarization, beta-catenin, read-out: FP EC50)	IC50 ([1]; read-out: beta-Catenin FP IC50)	chromatographic logD (CHI Log D procedure)	Solubility (Solubility in PBS; Solubility (uM))	inhibition at 10 µM ([2]; HEK293, 10 uM, read-out: NanoBRET % inh @ 10 uM)	Solubility (Solubility in PBS)	IC50 ([2]; read-out: NanoBRET Abs IC50)	IC50 ([2]; read-out: NanoBRET IC50)	logD (CHI Log D procedure)	solubility at 15 min (Solubility in PBS; Solubility (uM))
CC(=O)N1CCC[C@]12CC=CCCCC1(CCCC=CCCCOC(=O)N3CC[C@@](C(=O)N[C@@H](Cc4ccsc4)C(=O)N[C@@H](Cc4csc5ccccc45)C(=O)N[C@@H](CCC(N)=O)C(N)=O)(C3)NC(=O)[C@H](CC(N)=O)NC(=O)[C@H](Cc3ccccc3)NC(=O)[C@H](C)NC(=O)[C@H](C)NC(=O)[C@H](CC(C)C)NC(=O)[C@H](CC(=O)O)NC1=O)NC(=O)[C@H](CC(C)(C)C)NC(=O)[C@H](CC(=O)O)NC2=O (stereo partly drawn) [I-846, Ac-PL3-Asp-Npg-B5-Asp-Leu-Ala-Ala-Phe-Asn-PyrS2-3Thi-BztA-Gln-NH2]	0.035 µM	0.056 µM	2.42	18 µM (≈ 34.5 µg/mL)	4.3%	–	–	–	–	–
CC(=O)N1CCC[C@]12CC=CCCCC1(CCCC=CCCCOC(=O)N3CC[C@@](C(=O)N[C@@H](Cc4ccsc4)C(=O)N[C@@H](Cc4csc5ccccc45)C(=O)N[C@@H](Cc4c[nH]cn4)C(N)=O)(C3)NC(=O)[C@H](CC(N)=O)NC(=O)[C@H](Cc3ccccc3)NC(=O)[C@H](C)NC(=O)[C@H](C)NC(=O)[C@H](CC(C)C)NC(=O)[C@H](CC(=O)O)NC1=O)NC(=O)[C@H](CC(C)(C)C)NC(=O)[C@H](CC(=O)O)NC2=O (stereo partly drawn) [I-847, Ac-PL3-Asp-Npg-B5-Asp-Leu-Ala-Ala-Phe-Asn-PyrS2-3Thi-BztA-His-NH2]	–	0.028 µM	2.51	–	–	10 µM (≈ 19.3 µg/mL)	> 20 µM	–	–	–
CC(=O)N1CCC[C@]12CC=CCCCC1(CCCC=CCCCOC(=O)N3CC[C@@](C(=O)N[C@@H](Cc4ccsc4)C(=O)N[C@@H](Cc4csc5ccccc45)C(N)=O)(C3)NC(=O)[C@H](CC(N)=O)NC(=O)[C@H](Cc3ccccc3)NC(=O)[C@H](C)NC(=O)[C@H](C)NC(=O)[C@H](CC(N)=O)NC(=O)[C@H](CC(=O)O)NC1=O)NC(=O)[C@H](CC(C)(C)C)NC(=O)[C@H](CC(=O)O)NC2=O (stereo partly drawn) [I-857, Ac-PL3-Asp-Npg-B5-Asp-Asn-Ala-Ala-Phe-Asn-PyrS2-3Thi-BztA-NH2]	–	0.015 µM	2.58	–	–	10 µM (≈ 17.9 µg/mL)	30.6 µM	50.6 µM	–	–
CC(=O)N1CCC[C@]12CC=CCCCC1(CCCC=CCCCOC(=O)N3CC[C@@](C(=O)N[C@@H](Cc4ccsc4)C(=O)N[C@@H](Cc4csc5ccccc45)C(N)=O)(C3)NC(=O)[C@H](CC(N)=O)NC(=O)[C@H](Cc3ccccc3)NC(=O)[C@H](C)NC(=O)[C@H](C)NC(=O)[C@H](CCC(N)=O)NC(=O)[C@H](CC(=O)O)NC1=O)NC(=O)[C@H](CC(C)(C)C)NC(=O)[C@H](CC(=O)O)NC2=O (stereo partly drawn) [I-858, Ac-PL3-Asp-Npg-B5-Asp-Gln-Ala-Ala-Phe-Asn-PyrS2-3Thi-BztA-NH2]	–	0.034 µM	2.54	18 µM (≈ 32.5 µg/mL)	–	–	> 20 µM	–	–	–
CC(=O)N1CCC[C@]12CC=CCCCC1(CCCC=CCCCOC(=O)N3CC[C@@](C(=O)N[C@@H](Cc4ccsc4)C(=O)N[C@@H](Cc4csc5ccccc45)C(N)=O)(C3)NC(=O)[C@H](CC(N)=O)NC(=O)[C@H](Cc3ccccc3)NC(=O)[C@H](C)NC(=O)[C@H](C)NC(=O)[C@H](Cc3c[nH]cn3)NC(=O)[C@H](CC(=O)O)NC1=O)NC(=O)[C@H](CC(C)(C)C)NC(=O)[C@H](CC(=O)O)NC2=O (stereo partly drawn) [I-863, Ac-PL3-Asp-Npg-B5-Asp-His-Ala-Ala-Phe-Asn-PyrS2-3Thi-BztA-NH2]	–	0.022 µM	–	–	–	10 µM (≈ 18.1 µg/mL)	> 20 µM	–	2.28	–
CC(=O)N1CCC[C@]12CC=CCCCC1(CCCC=CCCCOC(=O)N3CC[C@@](C(=O)N[C@@H](Cc4ccsc4)C(=O)N[C@@H](Cc4csc5ccccc45)C(=O)N[C@@H](CCC(N)=O)C(N)=O)(C3)NC(=O)[C@H](CC(N)=O)NC(=O)[C@H](Cc3ccccc3)NC(=O)[C@H](C)NC(=O)[C@H](C)NC(=O)[C@H](Cc3c[nH]cn3)NC(=O)[C@H](CC(=O)O)NC1=O)NC(=O)[C@H](CC(C)(C)C)NC(=O)[C@H](CC(=O)O)NC2=O (stereo partly drawn) [I-864, Ac-PL3-Asp-Npg-B5-Asp-His-Ala-Ala-Phe-Asn-PyrS2-3Thi-BztA-Gln-NH2]	–	0.012 µM	2.62	–	–	10 µM (≈ 19.4 µg/mL)	40 µM	29.1 µM	–	–
CC(=O)N1CCC[C@]12CC=CCCCC1(CCCC=CCCCOC(=O)N3CC[C@@](C(=O)N[C@@H](Cc4ccsc4)C(=O)N[C@@H](Cc4csc5ccccc45)C(=O)N[C@@H](CCC(N)=O)C(N)=O)(C3)NC(=O)[C@H](CC(N)=O)NC(=O)[C@H](Cc3ccccc3)NC(=O)[C@H](CCCCNC(=O)CCc3cccc4ccccc34)NC(=O)[C@H](C)NC(=O)[C@H](CC(=O)O)NC(=O)[C@H](CC(=O)O)NC1=O)NC(=O)[C@H](CC(C)(C)C)NC(=O)[C@H](CC(=O)O)NC2=O (stereo partly drawn) [I-884, Ac-PL3-Asp-Npg-B5-Asp-Asp-Ala-[1NapPr]Lys-Phe-Asn-PyrS2-3Thi-BztA-Gln-NH2]	–	0.014 µM	2.11	34 µM (≈ 73.4 µg/mL)	–	–	> 20 µM	–	–	–
CC(=O)N1CCC[C@]12CC=CCCCC1(CCCC=CCCCOC(=O)N3CC[C@@](C(=O)N[C@@H](Cc4ccsc4)C(=O)N[C@@H](Cc4csc5ccccc45)C(=O)N[C@@H](CCC(N)=O)C(N)=O)(C3)NC(=O)[C@H](CC(N)=O)NC(=O)[C@H](Cc3ccccc3)NC(=O)[C@H](CCCCNC(=O)C(C)(c3ccccc3)c3ccccc3)NC(=O)[C@H](C)NC(=O)[C@H](CC(=O)O)NC(=O)[C@H](CC(=O)O)NC1=O)NC(=O)[C@H](CC(C)(C)C)NC(=O)[C@H](CC(=O)O)NC2=O (stereo partly drawn) [I-885, Ac-PL3-Asp-Npg-B5-Asp-Asp-Ala-[22PhPr]Lys-Phe-Asn-PyrS2-3Thi-BztA-Gln-NH2]	–	0.032 µM	2.39	43 µM (≈ 93.9 µg/mL)	–	–	> 20 µM	–	–	–
CC(=O)N1CCC[C@]12CC=CCCCC1(CCCC=CCCCOC(=O)N3CC[C@@](C(=O)N[C@@H](Cc4ccsc4)C(=O)N[C@@H](Cc4csc5ccccc45)C(=O)N[C@@H](CCC(N)=O)C(N)=O)(C3)NC(=O)[C@H](CC(N)=O)NC(=O)[C@H](Cc3ccccc3)NC(=O)[C@H](CCCCNC(=O)CN3CCOCC3)NC(=O)[C@H](C)NC(=O)[C@H](CC(=O)O)NC(=O)[C@H](CC(=O)O)NC1=O)NC(=O)[C@H](CC(C)(C)C)NC(=O)[C@H](CC(=O)O)NC2=O (stereo partly drawn) [I-886, Ac-PL3-Asp-Npg-B5-Asp-Asp-Ala-[MorphAc]Lys-Phe-Asn-PyrS2-3Thi-BztA-Gln-NH2]	–	0.022 µM	1.51	43 µM (≈ 90.4 µg/mL)	–	–	> 20 µM	–	–	–
CC(=O)N1CCC[C@]12CC=CCCCC1(CCCC=CCCCOC(=O)N3CC[C@@](C(=O)N[C@@H](Cc4ccsc4)C(=O)N[C@@H](Cc4csc5ccccc45)C(=O)N[C@@H](CCC(N)=O)C(N)=O)(C3)NC(=O)[C@H](CC(N)=O)NC(=O)[C@H](Cc3ccccc3)NC(=O)[C@H](CCCCNC(=O)CN3CCN(C)CC3)NC(=O)[C@H](C)NC(=O)[C@H](CC(=O)O)NC(=O)[C@H](CC(=O)O)NC1=O)NC(=O)[C@H](CC(C)(C)C)NC(=O)[C@H](CC(=O)O)NC2=O (stereo partly drawn) [I-887, Ac-PL3-Asp-Npg-B5-Asp-Asp-Ala-[MePipAc]Lys-Phe-Asn-PyrS2-3Thi-BztA-Gln-NH2]	–	0.014 µM	1.37	46 µM (≈ 97.3 µg/mL)	–	–	> 20 µM	–	–	–
CC(=O)N1CCC[C@]12CC=CCCCC1(CCCC=CCCCOC(=O)N3CC[C@@](C(=O)N[C@@H](Cc4ccsc4)C(=O)N[C@@H](Cc4csc5ccccc45)C(=O)N[C@@H](CCC(N)=O)C(N)=O)(C3)NC(=O)[C@H](CC(N)=O)NC(=O)[C@H](Cc3ccccc3)NC(=O)[C@H](CCCCNC(=O)c3ccc(CN4CCN(C)CC4)cc3)NC(=O)[C@H](C)NC(=O)[C@H](CC(=O)O)NC(=O)[C@H](CC(=O)O)NC1=O)NC(=O)[C@H](CC(C)(C)C)NC(=O)[C@H](CC(=O)O)NC2=O (stereo partly drawn) [I-889, Ac-PL3-Asp-Npg-B5-Asp-Asp-Ala-[4MePipBz]Lys-Phe-Asn-PyrS2-3Thi-BztA-Gln-NH2]	–	0.016 µM	1.49	–	–	–	> 20 µM	–	–	41 µM (≈ 89.9 µg/mL)
